According to the kinase profiling compilation of Christmann-Franck et al. (2016):

Assays:
Assay in all cases: radiometric filter-binding kinase assay
MINK1 (human) = MINK1 (human) (UniProt Q8N4C8)
HIPK2 (human) = HIPK2 (human) (UniProt Q9H2X6)
CAMKK2 (human) = CAMKK2 (human) (UniProt Q96RR4)
MAPK8 (human) = MAPK8 (human) (UniProt P45983)
AURKB (human) = AURKB (human) (UniProt Q96GD4)
MELK (human) = MELK (human) (UniProt Q14680)
IGF1R (human) = IGF1R (human) (UniProt P08069)
IKBKE (human) = IKBKE (human) (UniProt Q14164)
IKBKE (human), sequence (Q14164 whole entry, looked up): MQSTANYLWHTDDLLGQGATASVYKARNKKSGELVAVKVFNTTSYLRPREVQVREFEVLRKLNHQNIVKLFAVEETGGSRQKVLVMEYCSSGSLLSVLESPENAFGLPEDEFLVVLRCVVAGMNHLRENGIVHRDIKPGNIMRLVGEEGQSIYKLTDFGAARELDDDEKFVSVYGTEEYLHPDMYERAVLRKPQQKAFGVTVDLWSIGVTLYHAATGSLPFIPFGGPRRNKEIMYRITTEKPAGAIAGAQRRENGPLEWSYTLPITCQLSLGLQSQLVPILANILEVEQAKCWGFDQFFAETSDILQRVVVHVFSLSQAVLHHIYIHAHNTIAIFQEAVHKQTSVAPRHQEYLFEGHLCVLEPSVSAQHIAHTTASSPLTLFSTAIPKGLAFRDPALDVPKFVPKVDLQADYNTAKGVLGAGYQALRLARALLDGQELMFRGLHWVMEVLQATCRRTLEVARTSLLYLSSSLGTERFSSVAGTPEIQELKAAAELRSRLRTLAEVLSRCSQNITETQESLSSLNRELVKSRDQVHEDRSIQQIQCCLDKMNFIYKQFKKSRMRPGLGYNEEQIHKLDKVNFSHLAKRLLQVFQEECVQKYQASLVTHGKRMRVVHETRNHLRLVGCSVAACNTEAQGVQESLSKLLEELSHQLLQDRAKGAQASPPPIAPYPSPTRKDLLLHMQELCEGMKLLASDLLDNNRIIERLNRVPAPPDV

CaMK1 (human) = CaMK1 (human) (UniProt Q14012)
EPHB3 (human) = EPHB3 (human) (UniProt P54753)
MAPKAPK2 (human) = MAPKAPK2 (human) (UniProt P49137)
PAK4 (human) = PAK4 (human) (UniProt O96013)
PAK4 (human), sequence (O96013 whole entry, looked up): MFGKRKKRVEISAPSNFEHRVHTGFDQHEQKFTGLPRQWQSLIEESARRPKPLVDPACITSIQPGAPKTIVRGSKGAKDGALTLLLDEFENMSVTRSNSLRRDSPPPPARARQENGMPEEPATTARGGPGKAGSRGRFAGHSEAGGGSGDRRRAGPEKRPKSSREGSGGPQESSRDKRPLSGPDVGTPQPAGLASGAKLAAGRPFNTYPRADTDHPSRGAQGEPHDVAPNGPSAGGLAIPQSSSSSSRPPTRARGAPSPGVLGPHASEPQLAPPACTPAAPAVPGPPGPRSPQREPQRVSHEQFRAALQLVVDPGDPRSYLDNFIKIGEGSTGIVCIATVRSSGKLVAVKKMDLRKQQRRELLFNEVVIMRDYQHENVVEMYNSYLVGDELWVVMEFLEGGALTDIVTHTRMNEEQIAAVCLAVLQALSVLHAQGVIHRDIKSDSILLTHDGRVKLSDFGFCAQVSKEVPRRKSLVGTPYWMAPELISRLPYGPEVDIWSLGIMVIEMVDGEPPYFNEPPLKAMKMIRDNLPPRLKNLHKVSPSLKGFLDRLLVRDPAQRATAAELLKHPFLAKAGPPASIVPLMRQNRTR

YES1 (human) = YES1 (human) (UniProt P07947)
YES1 (human), sequence (P07947 whole entry, looked up): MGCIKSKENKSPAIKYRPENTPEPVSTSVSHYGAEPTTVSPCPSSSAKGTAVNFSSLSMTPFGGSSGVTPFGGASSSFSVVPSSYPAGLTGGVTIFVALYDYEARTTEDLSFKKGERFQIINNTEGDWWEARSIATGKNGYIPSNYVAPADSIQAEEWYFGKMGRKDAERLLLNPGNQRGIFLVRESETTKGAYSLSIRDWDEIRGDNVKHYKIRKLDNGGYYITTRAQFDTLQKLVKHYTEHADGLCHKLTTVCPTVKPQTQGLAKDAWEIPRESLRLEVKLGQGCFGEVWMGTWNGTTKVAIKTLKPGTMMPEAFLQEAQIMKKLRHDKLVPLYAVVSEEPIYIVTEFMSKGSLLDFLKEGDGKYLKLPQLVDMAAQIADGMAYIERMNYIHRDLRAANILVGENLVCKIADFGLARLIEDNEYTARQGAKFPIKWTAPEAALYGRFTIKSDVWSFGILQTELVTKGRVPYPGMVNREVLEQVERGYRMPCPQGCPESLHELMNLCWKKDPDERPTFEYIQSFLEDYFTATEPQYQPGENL

MAPK15 (human) = MAPK15 (human) (UniProt Q8TD08)
MAPK14 (human) = MAPK14 (human) (UniProt Q16539)
DYRK1A (human) = DYRK1A (human) (UniProt Q13627)
MAPK12 (human) = MAPK12 (human) (UniProt P53778)
PIM1 (human) = PIM1 (human) (UniProt P11309); settings: compound 0.1 µM
PIM1 (human), sequence (P11309 whole entry, looked up): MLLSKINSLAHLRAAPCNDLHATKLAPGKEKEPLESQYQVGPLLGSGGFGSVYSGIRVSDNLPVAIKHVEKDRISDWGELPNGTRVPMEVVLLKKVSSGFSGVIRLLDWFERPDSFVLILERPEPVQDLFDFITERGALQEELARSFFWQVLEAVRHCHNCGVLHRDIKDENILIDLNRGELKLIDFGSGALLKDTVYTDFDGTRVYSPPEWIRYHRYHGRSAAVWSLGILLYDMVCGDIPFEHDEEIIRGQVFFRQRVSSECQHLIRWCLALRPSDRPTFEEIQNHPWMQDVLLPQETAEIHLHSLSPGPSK

AURKB (human), sequence (Q96GD4 whole entry, looked up): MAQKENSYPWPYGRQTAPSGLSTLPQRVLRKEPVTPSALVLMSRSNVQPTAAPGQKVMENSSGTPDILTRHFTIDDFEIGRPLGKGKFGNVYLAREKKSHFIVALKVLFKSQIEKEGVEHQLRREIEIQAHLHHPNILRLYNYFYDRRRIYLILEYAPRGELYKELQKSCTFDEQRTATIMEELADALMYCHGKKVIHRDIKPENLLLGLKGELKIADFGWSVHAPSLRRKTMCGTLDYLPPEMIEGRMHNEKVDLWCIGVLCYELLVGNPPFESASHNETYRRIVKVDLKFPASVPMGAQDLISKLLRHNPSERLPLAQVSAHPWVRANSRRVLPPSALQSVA
IGF1R (human), sequence (P08069 whole entry, looked up): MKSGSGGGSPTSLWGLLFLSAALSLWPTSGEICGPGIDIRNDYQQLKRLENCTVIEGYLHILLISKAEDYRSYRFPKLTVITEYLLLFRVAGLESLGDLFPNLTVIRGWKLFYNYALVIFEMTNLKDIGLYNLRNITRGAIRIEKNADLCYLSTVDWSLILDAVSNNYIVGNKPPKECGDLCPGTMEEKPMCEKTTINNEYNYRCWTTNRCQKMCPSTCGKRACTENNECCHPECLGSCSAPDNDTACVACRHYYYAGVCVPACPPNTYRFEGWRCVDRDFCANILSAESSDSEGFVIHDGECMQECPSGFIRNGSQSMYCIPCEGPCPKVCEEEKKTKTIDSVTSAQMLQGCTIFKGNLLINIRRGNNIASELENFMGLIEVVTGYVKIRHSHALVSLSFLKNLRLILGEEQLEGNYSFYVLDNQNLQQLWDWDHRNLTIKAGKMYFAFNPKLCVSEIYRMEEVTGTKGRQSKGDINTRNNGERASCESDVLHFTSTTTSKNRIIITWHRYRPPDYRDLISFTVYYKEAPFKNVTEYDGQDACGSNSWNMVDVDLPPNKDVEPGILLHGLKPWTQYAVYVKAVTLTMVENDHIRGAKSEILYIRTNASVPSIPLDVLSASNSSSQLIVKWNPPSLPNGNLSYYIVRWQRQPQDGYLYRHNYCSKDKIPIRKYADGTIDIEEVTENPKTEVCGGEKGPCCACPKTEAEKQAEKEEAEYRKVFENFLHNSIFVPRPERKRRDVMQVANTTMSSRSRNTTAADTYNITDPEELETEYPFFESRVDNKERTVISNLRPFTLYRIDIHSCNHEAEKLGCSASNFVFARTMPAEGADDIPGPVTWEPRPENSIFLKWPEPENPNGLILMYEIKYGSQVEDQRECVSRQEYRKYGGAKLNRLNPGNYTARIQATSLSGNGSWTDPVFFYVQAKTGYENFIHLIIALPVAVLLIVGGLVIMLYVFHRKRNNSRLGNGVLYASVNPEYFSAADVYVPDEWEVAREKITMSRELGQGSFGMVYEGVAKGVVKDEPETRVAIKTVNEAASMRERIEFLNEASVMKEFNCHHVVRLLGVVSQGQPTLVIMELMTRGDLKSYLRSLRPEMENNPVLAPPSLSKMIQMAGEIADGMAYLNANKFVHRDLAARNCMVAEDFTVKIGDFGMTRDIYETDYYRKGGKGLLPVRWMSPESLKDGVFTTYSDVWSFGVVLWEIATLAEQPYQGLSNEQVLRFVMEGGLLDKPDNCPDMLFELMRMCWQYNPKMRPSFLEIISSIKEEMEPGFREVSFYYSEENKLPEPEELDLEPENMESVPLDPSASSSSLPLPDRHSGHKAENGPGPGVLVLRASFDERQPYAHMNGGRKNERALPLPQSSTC
HIPK2 (human), sequence (Q9H2X6 whole entry, looked up): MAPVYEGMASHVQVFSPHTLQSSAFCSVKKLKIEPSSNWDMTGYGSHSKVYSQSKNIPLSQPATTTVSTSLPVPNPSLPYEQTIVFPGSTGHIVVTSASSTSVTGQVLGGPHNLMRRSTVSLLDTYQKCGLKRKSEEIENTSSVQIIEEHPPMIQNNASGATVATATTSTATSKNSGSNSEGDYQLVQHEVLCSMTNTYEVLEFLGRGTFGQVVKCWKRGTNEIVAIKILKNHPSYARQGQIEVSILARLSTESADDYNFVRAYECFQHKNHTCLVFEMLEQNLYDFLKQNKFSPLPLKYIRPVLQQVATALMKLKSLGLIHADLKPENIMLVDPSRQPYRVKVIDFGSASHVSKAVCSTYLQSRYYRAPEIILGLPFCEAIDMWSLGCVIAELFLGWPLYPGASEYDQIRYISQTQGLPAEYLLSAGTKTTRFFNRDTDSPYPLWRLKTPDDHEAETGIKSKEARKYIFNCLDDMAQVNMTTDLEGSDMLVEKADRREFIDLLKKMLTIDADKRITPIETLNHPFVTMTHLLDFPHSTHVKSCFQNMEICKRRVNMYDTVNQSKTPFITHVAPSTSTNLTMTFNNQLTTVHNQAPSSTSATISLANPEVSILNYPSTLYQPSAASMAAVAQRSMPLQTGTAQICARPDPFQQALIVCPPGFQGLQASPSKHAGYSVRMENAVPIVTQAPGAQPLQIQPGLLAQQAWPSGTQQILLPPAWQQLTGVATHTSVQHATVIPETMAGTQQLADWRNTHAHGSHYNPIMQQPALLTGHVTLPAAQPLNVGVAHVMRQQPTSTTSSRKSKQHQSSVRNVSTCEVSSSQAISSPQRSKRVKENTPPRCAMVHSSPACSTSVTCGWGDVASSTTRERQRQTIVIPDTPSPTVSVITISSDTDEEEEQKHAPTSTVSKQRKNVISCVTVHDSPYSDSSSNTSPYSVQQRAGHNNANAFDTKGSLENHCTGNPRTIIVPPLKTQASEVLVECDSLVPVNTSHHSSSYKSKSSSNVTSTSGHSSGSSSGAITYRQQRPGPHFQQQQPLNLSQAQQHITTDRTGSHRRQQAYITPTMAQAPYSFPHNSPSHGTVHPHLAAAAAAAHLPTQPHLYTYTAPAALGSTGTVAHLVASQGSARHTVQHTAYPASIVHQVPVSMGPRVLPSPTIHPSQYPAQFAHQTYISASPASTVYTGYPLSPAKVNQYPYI

O=C(N[C@@H](COc1ccc2[nH]c(=O)[nH]c2c1)c1ccccc1)c1cccn(Cc2ccc(F)c(F)c2)c1=O
residual activity (MINK1 (human); compound 0.1 µM): 92% | residual activity (MINK1 (human); compound 1.0 µM): 100% | residual activity (MINK1 (human); compound 10.0 µM): 87% | residual activity (HIPK2 (human); compound 0.1 µM): 92% | residual activity (HIPK2 (human); compound 1.0 µM): 96% | residual activity (HIPK2 (human); compound 10.0 µM): 90% | residual activity (CAMKK2 (human); compound 1.0 µM): 104% | residual activity (CAMKK2 (human); compound 10.0 µM): 90% | residual activity (MAPK8 (human); compound 0.1 µM): 100% | residual activity (MAPK8 (human); compound 10.0 µM): 114% | residual activity (AURKB (human); compound 0.1 µM): 105% | residual activity (AURKB (human); compound 1.0 µM): 104% | residual activity (AURKB (human); compound 10.0 µM): 64% | residual activity (MELK (human); compound 0.1 µM): 97% | residual activity (MELK (human); compound 1.0 µM): 110% | residual activity (MELK (human); compound 10.0 µM): 99% | residual activity (IGF1R (human); compound 0.1 µM): 105% | residual activity (IGF1R (human); compound 1.0 µM): 105% | residual activity (IGF1R (human); compound 10.0 µM): 103% | residual activity (IKBKE (human); compound 0.1 µM): 103% | residual activity (IKBKE (human); compound 1.0 µM): 109% | residual activity (IKBKE (human); compound 10.0 µM): 95% | residual activity (CaMK1 (human); compound 0.1 µM): 95% | residual activity (CaMK1 (human); compound 1.0 µM): 92% | residual activity (CaMK1 (human); compound 10.0 µM): 51% | residual activity (EPHB3 (human); compound 0.1 µM): 114% | residual activity (EPHB3 (human); compound 1.0 µM): 119% | residual activity (EPHB3 (human); compound 10.0 µM): 113% | residual activity (MAPKAPK2 (human); compound 0.1 µM): 99% | residual activity (MAPKAPK2 (human); compound 1.0 µM): 101% | residual activity (MAPKAPK2 (human); compound 10.0 µM): 90% | residual activity (PAK4 (human); compound 0.1 µM): 102% | residual activity (PAK4 (human); compound 1.0 µM): 101% | residual activity (PAK4 (human); compound 10.0 µM): 67% | residual activity (YES1 (human); compound 0.1 µM): 104% | residual activity (YES1 (human); compound 1.0 µM): 105% | residual activity (YES1 (human); compound 10.0 µM): 95% | residual activity (MAPK15 (human); compound 0.1 µM): 92% | residual activity (MAPK15 (human); compound 1.0 µM): 89% | residual activity (MAPK15 (human); compound 10.0 µM): 94% | residual activity (MAPK14 (human); compound 0.1 µM): 114% | residual activity (MAPK14 (human); compound 1.0 µM): 121% | residual activity (MAPK14 (human); compound 10.0 µM): 114% | residual activity (DYRK1A (human); compound 0.1 µM): 113% | residual activity (DYRK1A (human); compound 1.0 µM): 97% | residual activity (DYRK1A (human); compound 10.0 µM): 79% | residual activity (MAPK12 (human); compound 0.1 µM): 98% | residual activity (MAPK12 (human); compound 1.0 µM): 110% | residual activity (MAPK12 (human); compound 10.0 µM): 105% | residual activity (PIM1 (human)): 101%
